From PMC9934367, “Functional impact of subunit composition and compensation on Drosophila melanogaster nicotinic receptors–targets of neonicotinoids” (PLOS Genetics, 2023)

Experiments:
D. melanogaster nAChRs = assay: Comparison of agonist activity between nAChRs expressed in X. laevis oocytes (one-way ANOVA, Kruskal-Wallis); type: cell-based
Protocol: (§1) We minimised the use of X. laevis according to the UK Animals (Scientific Procedures) Act, 1986. […] Oocytes were defolliculated after collagenase treatment in Ca^2+-free standard oocyte saline (Ca^2+-free SOS). cRNAs of the nAChR subunits and co-factors mixed at a concentration of 0.1 mg/mL was injected into oocytes at a volume of 50 nL. Then the oocytes were incubated in the incubation medium (SOS supplemented with sodium pyruvate (Nacalai Tesque, #13058–12), penicillin-streptomycin (MilliporeSigma, #P4333), gentamycin (Nacalai Tesque, #16672–04), and 4% horse serum (Thermo Fisher Scientific, #26050–070) for 3−4 days prior to electrophysiology.
(§2) Each defolliculated X. laevis oocyte was secured in a Perspex recording chamber and perfused with the standard oocyte saline (SOS) containing 0.5 μM atropine (SOSA) at a flow rate of 7−10 mL/min [48]. Two glass electrodes filled with 2 M KCl were impaled into each oocyte and the membrane potential was clamped at -100 mV. […] The peak amplitude of the response was measured and analysed by pCLAMP (Molecular Devices, USA).
(§3) Y=Imax/1+10^(logEC50‐X)nH
(§4) Where Y is the normalised response, X is log[ligand (M)], EC50 is the half maximal concentration (M), Imax is the maximum normalised response and nH is the Hill coefficient.
Prism software was employed for the statistical analyses. […] One-way ANOVA was used to analyse the differences of the ligand agonist activity in terms of pEC50 on the various nAChRs expressed in X. laevis as well as data obtained with D. melanogaster larvae and adults.

D. melanogaster = settings: Dα2 knockout; cited from earlier work
Dα3/Dβ1 nAChR = molecular target: T1, Dα3/Dβ1 nAChR (Drosophila melanogaster, UniProt P04755+Q9W3G6); assay: cell-based; type: cell-based, D. melanogaster
T1 construct: Dβ1 (NP_523927); expressed in transfected cells; host or cells: Xenopus laevis oocytes (cRNA injection)
Protocol: (§5) cDNAs of the nAChR subunits and co-factors were cloned into pcDNA3.1 (+) vector (Thermo Fisher Scientific). The accession numbers of the nAChR subunits and cofactors are as follows: Dα1 (NP_524481), Dα2 (NP_524482), Dα3 (NP_525079), Dα4 (CAB77445), Dβ1 (NP_523927), Dβ2 (NP_524483), Dβ3 (NP_525098), DmRIC-3 (CAP16647), DmUNC-50 (NP_649813), and DmTMX3 (NP_648847). cRNAs were prepared using the mMESSAGE mMACHINE T7 ULTRA Transcription Kit (Thermo Fisher Scientific, #AM1345) according to the manual with the cDNA template which was cut with appropriate restriction enzymes at the 3’ end of the cDNA.
as §1, §2, §3, §4

Dα2/Dα3/Dβ1 nAChR = molecular target: T2, Dα2/Dα3/Dβ1 nAChR (Drosophila melanogaster, UniProt P04755+P17644+Q9W3G6); assay: Voltage-clamp electrophysiology, nAChR expressed in X. laevis oocytes; type: cell-based, D. melanogaster
T2 construct: Dα2 (NP_524482); Dβ1 (NP_523927); expressed in transfected cells; host or cells: Xenopus laevis oocytes (cRNA injection)
Protocol: as §5, §1, §2, §3, §4

Dα3/Dβ1/Dβ2 nAChR = molecular target: T3, Dα3/Dβ1/Dβ2 nAChR (Drosophila melanogaster, UniProt P04755+P25162+Q9W3G6); assay: as above; type: cell-based, D. melanogaster
T3 construct: Dβ1 (NP_523927); Dβ2 (NP_524483); expressed in transfected cells; host or cells: Xenopus laevis oocytes (cRNA injection)
Protocol: as §5, §1, §2, §3, §4

Dα1/chicken β2 nAChR = settings: cited from earlier work
Dα2/chicken β2 nAChR = settings: cited from earlier work

Compound: N#C/N=C1\SCCN1Cc1ccc(Cl)nc1 [Thiacloprd]
- Difference of Imax values, nAChRs compared (D. melanogaster nAChRs; Dα1/Dα2/Dα3/Dβ1/Dβ2 vs. Dα1/Dα2/Dα4/Dβ1/Dβ2): -0.007
- Difference of Imax values, nAChRs compared (D. melanogaster nAChRs; Dα1/Dα2/Dα3/Dβ1/Dβ2 vs. Dα1/Dα2/Dβ1/Dβ2/Dβ3): 0.036
- Difference of Imax values, nAChRs compared (D. melanogaster nAChRs; Dα1/Dα2/Dα3/Dβ1/Dβ2 vs. Dα1/Dα3/Dα4/Dβ1/Dβ2): 0.033
- Difference of Imax values, nAChRs compared (D. melanogaster nAChRs; Dα1/Dα2/Dα3/Dβ1/Dβ2 vs. Dα1/Dα3/Dβ1/Dβ2/Dβ3): -0.030
- Difference of Imax values, nAChRs compared (D. melanogaster nAChRs; Dα1/Dα2/Dα3/Dβ1/Dβ2 vs. Dα2/Dα3/Dα4/Dβ1/Dβ2): 0.041
- Difference of Imax values, nAChRs compared (D. melanogaster nAChRs; Dα1/Dα2/Dα3/Dβ1/Dβ2 vs. Dα2/Dα3/Dβ1/Dβ2/Dβ3): 0.049

Compound: CCN(Cc1ccc(Cl)nc1)/C(=C/[N+](=O)[O-])NC [nitenpyram]
- sensitivity in larvae, effect of knockout (D. melanogaster): enhanced

Compound: α-Bungarotoxin [α-BTX]
- blocking effect on ACh-induced response (Dα3/Dβ1 nAChR): minimal blocking effect
- blocking effect on ACh-induced response (Dα2/Dα3/Dβ1 nAChR): minimal blocking effect
- blocking effect on ACh-induced response (Dα3/Dβ1/Dβ2 nAChR): minimal blocking effect
- sensitivity to α-BTX (Dα1/chicken β2 nAChR): sensitive
- sensitivity to α-BTX (Dα2/chicken β2 nAChR): resistant
